The record followed here is patent US7531575B2, “Method of modulating cellular activity and agents useful for same” (Eberhard-Karls-Universität Tübingin, priority 2002, dated 2009).

Holding throughout (type): cell-based, murine
Test [1] relates to iNOS. Briefly: iNOS activity by Griess assay (nitrite formation), LPS-stimulated N9 microglia. The note with it: N9 cells. The source says: (§1) TNL was a generous gift of Kissei Pharmaceuticals, LPC (Escherichia coli, 0127:BS), phorbol 12-myristate 13-acetate (PMA) and dexamethasone (DEX) were obtained from Sigma, BAY 11-7082 (BAY), NF-κB SN50 inhibitory peptide (SN50), GF 109203X (GFX) and rottlerin (ROT) were purchased from Biomol. PD098059 (PD) was obtained from Calbiochem. Purified murine interferon-γ (IFN-γ) was purchased from Roche Diagnostics. N9 murine microglial cells were a kind gift from P. Ricciardi-Castagnoli (Righi, M. et al. 1989 supra). Cells were cultured in Dulbecco's modified Eagle's medium (DMEM) supplemented with 10% fetal calf serum (FCS), 2 mM glutamine, penicillin (100 unit/mL) and streptomycin (100 μg/mL) and maintained at 37° in an atmosphere of 5% CO2. Viability was assessed by crystal violet staining.
iNOS activity was assessed by the Griess assay (Platten, M., Wick, W., Wischhusen, J. and Weller, M. Br J Pharmacol 134(6):1279-1284, 2001). Briefly, conditioned supernatant was incubated with an equal volume of Griess reagent containing 1% sulphanilamide, 0.1% naphthylethylenediamine dihydrochloride and 2.5% H3PO4 (Green, L. C., Wagner, D. A., Glogowski, J., Skipper, P. I., Wishnok, J. S, and Tannenbaum, S. R. Anal. Biochem., 126:131-138, 1982) for 5 min. at room temperature. The absorbance was measured at 546 nm. NaNO2 diluted in DMEM served as a standard. To control for cell number, the cells were stained with crystal violet. iNOS activity is expressed as nitrite accumulated in 48 hr/10^5 cells.
A general note: Griess reagent forms a coloured azo dye with nitrite.

Test [2] relates to iNOS. Nature of the test: iNOS protein immunoblot, LPS-stimulated N9 microglia.
Source text: as §1
For the preparation of whole cell lysates, the cells were lysed in 0.1 M Tris-HCl (pH 7.2) containing 0.1% NP40, 0.1 mM EDTA and 5 μg/mL phenylmethylsulphonyl fluoride. Twenty micrograms protein was separated by 10-12% SDS-PAGE and electroblotted on nitrocellulose membrane. Equal loading was controlled by Ponceau S staining. Immunodetection was performed using the following antibodies: anti-iNOS rabbit polyclonal antibody (1:1000, Cayman), antiphospho-IκBα mouse monoclonal antibody (1:1000), anti-PKCδ mouse monoclonal antibody (1:2000), antiphospho-MARCKS rabbit polyclonal antibody (1:1000), antiphospho-ERK-1/2, antiphospho-AKT, antiphospho-p38 mouse monoclonal antibodies (1:2000), anti-ERK-1/2, anti-AKT mouse monoclonal antibodies (1:500, all from Signal Transduction Laboratories). Bands were visualized using horseradish peroxidase-conjugated anti-rabbit IgG (1:4000 SantaCruz) or anti-mouse IgG (1:4000, Amersham).
(In general: A western blot detects proteins with antibodies after separation by electrophoresis.)

Test [3] concerns iNOS. Briefly: iNOS activity by Griess assay (NO2 release), IFN-γ-stimulated N9 microglia. To be noted: N9 cells, IFN-γ 200 u ml, 48 h, dexamethasone 500 nM. Here is the method:
Tranilast was a generous gift of Kissei Pharmaceuticals (Nagano, Japan). Murine recombinant IFN-γ was purchased from Boehringer (Mannheim, Germany). Dexamethasone (DEX) was obtained from Sigma (Deisenhofen, Germany). N9 murine microglial cells were a kind gift from P. Ricciardi-Castagnoli (Milano, Italy) (Righi, M., Mori, L., De Libero, G., Sironi, M., Biondi, A., Mantovani, A., Donini, S. D. and Ricciardi-Castagnoli, P. Eur J Immunol 19(8):1443-1448, 1989). The cells were cultured in Dulbecco's modified Eagle's medium (DMEM) supplemented with 10% foetal calf serum (FCS), 2 mM glutamine and penicillin ([…])/streptomycin (100 μg ml), and maintained at 37° C. in an atmosphere of 5% CO2. Viability was assessed by crystal violet staining.
iNOS activity was assessed by the Griess assay as described elsewhere (Rieger, J., Stander, M., Loschmann, P. A., Heneka, M., Dichgans, J., Klockgether, T. and Weller, M., Oncogene, 17:2323-2332, 1998). Briefly, conditioned supernatant (100 μl) was incubated with an equal volume of 1% sulphanilamide/0.1% naphthyl ethylene diamine dihydrochloride/2.5% H3PO4 (Griess reagent) (Green, L. C., Wagner, D. A., Glogowski, J., Skipper, P. I., Wishnok, J. S, and Tannenbaum, S. R., Anal. Biochem., 126:131-138, 1982), incubated for 5 min at room temperature, and the absorbance at […] determined. Solutions of NaNO2 diluted in DMEM served as standards. The absorbance readings resulting from DMEM alone were subtracted from the sample values. Cell density was assessed using crystal violet staining to control for differences in cell proliferation. iNOS activity is thus expressed here as NO2 accumulated per 48 h per 10^5 cells.

The test system of a further test is ERK-1/2. Nature of the test: phospho-ERK-1/2 immunoblot after PKC depletion, LPS-stimulated N9 microglia. The note with it: N9 cells, prolonged pretreatment with PMA 100 nM 24 hr, then LPS 10 μg/mL.
Source text: as §1
(§2) For the preparation of whole cell lysates, the cells were lysed in 0.1 M Tris-HCl (pH 7.2) containing 0.1% NP40, 0.1 mM EDTA and 5 μg/mL phenylmethylsulphonyl fluoride. Twenty micrograms protein was separated by 10-12% SDS-PAGE and electroblotted on nitrocellulose membrane. Equal loading was controlled by Ponceau S staining. […]

The test system of another test is PKCδ. Nature of the test: PKCδ immunoblot after long-term PMA in N9 microglia. The note with it: N9 cells, PMA 100 nM, 24 hr treatment, data not shown.
Source text: as §1, §2

In the test with iNOS [1] (LPS, 40 μM PD, vehicle-treated cells 16.6±0.3), `COc1cccc(-c2cc(=O)c3ccccc3o2)c1N` [PD] gave an LPS-mediated nitrite formation of 10.7±0.4 μM/10^4 cells/48 hr. `CN(C)CCCn1cc(C2=C(c3c[nH]c4ccccc34)C(=O)NC2=O)c2ccccc21` [GFX]: the “PMA superinduction of iNOS protein in LPS-stimulated cells” value in the test on iNOS [2] (PMA 100 nM 15 min, LPS 10 μg/mL 24 hr, GFX 2 μM) is reported as “abolished”. Take `C[C@@H]1C[C@H]2[C@@H]3CCC4=CC(=O)C=C[C@]4(C)[C@@]3(F)[C@@H](O)C[C@]2(C)[C@@]1(O)C(=O)CO` [dexamethasone]: the “reduction of the amount of NO2 (Griess assay)” value in the test with iNOS [3] worked out at 75%. Turning to `CC(=O)c1c(O)c(C)c(O)c(Cc2c(O)c3c(c(C(=O)/C=C/c4ccccc4)c2O)OC(C)(C)C=C3)c1O` [ROT, rottlerin], the “iNOS protein accumulation after LPS” value with iNOS [2] (N9 cells, LPS 10 μg/mL 24 hr, ROT at concentrations as low as 5 μM) is given as “strongly inhibited”. On to `Cc1ccc(S(=O)(=O)/C=C/C#N)cc1` [BAY], for which, in the test with iNOS [1] (LPS, BAY 20 μM, vehicle-treated cells 14.6±1.0), the “LPS-stimulated NO release” value was 11.1±0.7 μM/10^4 cells/48 hr. For `CCCCCCCCCCCCCC(=O)O[C@@H]1[C@@H](C)[C@@]2(O)[C@@H](C=C(CO)C[C@]3(O)C(=O)C(C)=C[C@@H]23)[C@@H]2C(C)(C)[C@]12OC(C)=O` [PMA, phorbol 12-myristate 13-acetate], in the test on ERK-1/2, the “LPS-induced ERK-1/2 phosphorylation” value was “failed to induce”. Also, in the test on iNOS [2] (N9 cells, 24-hr exposure to PMA 100 nM, then LPS 10 μg/mL for 24 hr), the “reduction of iNOS protein (densitometry)” value was determined as 80%. Besides, the “LPS-mediated iNOS protein expression” value in the test on iNOS [2] (N9 cells, PMA 100 nM pretreatment 15 min, LPS 10 μg/mL, 24 hr) is “superinduction”. Also, in the test with iNOS [2] (N9 cells, PMA 100 nM, no LPS), the “iNOS protein expression in the absence of LPS” value is given as “did not induce”. Moreover, the LPS-mediated nitrite formation entry in the test with iNOS [1] (PMA 100 nM pretreatment 15 min, LPS 10 μg/mL, 48 hr) is “superinduction”. The PKCδ protein level entry with PKCδ was “effectively depleted”.
